Experimental data published in publication PMC5659294 (Pharmacogenetics and genomics, 2017).
Read-outs that look alike come from different tables or passages of the source.

Type: in vivo, human

In the case of `CC/C(=C(\c1ccccc1)c1ccc(OCCNC)cc1)c1ccccc1` [N-desmethyltamoxifen], the “Association of season with N-desmethyltamoxifen concentration, β” value (secondary screen, fall compared to winter) is reported as −1.053 and the “Association of weight with N-desmethyltamoxifen concentration, β” value (secondary screen, greater weight) is reported as −0.025.
In the case of `CC/C(=C(\c1ccccc1)c1ccc(OCCN(C)C)cc1)c1ccccc1` [tamoxifen, reference compound], the “tamoxifen concentrations by season of sample collection” value (steady state, tamoxifen 20 mg daily) is reported as “not different between the seasons”.
In the case of `CC/C(=C(\c1ccc(O)cc1)c1ccc(OCCNC)cc1)c1ccccc1` [endoxifen], the “Final multivariable model, steady-state endoxifen concentration, B Coefficient (95% Confidence Interval)” value (CYP2C9 Activity Phenotype) is reported as “.20 (0.03, 0.37)”, the “Final multivariable model, steady-state endoxifen concentration, B Coefficient (95% Confidence Interval)” value (CYP2D6 Diplotype IM/IM (vs. NM/NM)) is reported as “−.87 (−1.4, −.34)” and the “Final multivariable model, steady-state endoxifen concentration, B Coefficient (95% Confidence Interval)” value (CYP2D6 Diplotype IM/PM (vs. NM/NM)) is reported as “−.96 (−1.3, −.61)”. For the same compound, the “Final multivariable model, steady-state endoxifen concentration, B Coefficient (95% Confidence Interval)” value (CYP2D6 Diplotype NM/IM (vs. NM/NM)) was “−.35 (−.61, −.08)”, the “Final multivariable model, steady-state endoxifen concentration, B Coefficient (95% Confidence Interval)” value (CYP2D6 Diplotype NM/PM (vs. NM/NM)) was “−.49 (−.73, −.26)” and the “Final multivariable model, steady-state endoxifen concentration, B Coefficient (95% Confidence Interval)” value (CYP2D6 Diplotype PM/PM (vs. NM/NM)) was −1.32 (−1.79, −.85). The “Final multivariable model, steady-state endoxifen concentration, B Coefficient (95% Confidence Interval)” value (Season of Sample Collection Fall (vs. winter)) was “−.48 (−.74, −.22)”, the “Final multivariable model, steady-state endoxifen concentration, B Coefficient (95% Confidence Interval)” value (Season of Sample Collection Summer (vs. winter)) was “−.49 (−.79, −.19)” and the “Final multivariable model, steady-state endoxifen concentration, B Coefficient (95% Confidence Interval)” value (Weight (kg)) was “−.013 (−.02, −.01)”. For the same compound, the “Association of SULT1A1 activity with endoxifen/4-OH-tamoxifen ratio, β” value (secondary screen, higher SULT1A1 predicted activity phenotype) was 0.54, the “Association of CYP2C8 activity with ratio of endoxifen to N-desmethyltamoxifen, β” value (secondary screen, increased CYP2C8 predicted activity phenotype) was 0.01 and the “Mean Endoxifen (Std. Dev.)” value (steady state, tamoxifen 20 mg daily, ABCB1 predicted activity phenotype Normal) was 7.01 (4.41) n=60 ng/mL. The “Mean Endoxifen (Std. Dev.)” value (steady state, tamoxifen 20 mg daily, ABCB1 predicted activity phenotype Poor) was 8.93 (7.53) n=37 ng/mL, the “Mean Endoxifen (Std. Dev.)” value (steady state, tamoxifen 20 mg daily, ABCC2 predicted activity phenotype Normal) was 8.29 (4.99) n=89 ng/mL and the “Mean Endoxifen (Std. Dev.)” value (steady state, tamoxifen 20 mg daily, ABCC2 predicted activity phenotype Poor) was 9.30 (5.34) n=10 ng/mL. For the same compound, the “Mean Endoxifen (Std. Dev.)” value (steady state, tamoxifen 20 mg daily, ABCG2 predicted activity phenotype Normal) was 7.90 (5.48) n=249 ng/mL, the “Mean Endoxifen (Std. Dev.)” value (steady state, tamoxifen 20 mg daily, ABCG2 predicted activity phenotype Poor) was 12.82 (10.85) n=3 ng/mL and the “Mean Endoxifen (Std. Dev.)” value (steady state, tamoxifen 20 mg daily, CYP1A1 predicted activity phenotype Normal) was 8.05 (5.51) n=248 ng/mL. For the same compound, the “Mean Endoxifen (Std. Dev.)” value (steady state, tamoxifen 20 mg daily, CYP1A1 predicted activity phenotype Poor) was 3.19 (1.53) n=2 ng/mL, the “Mean Endoxifen (Std. Dev.)” value (steady state, tamoxifen 20 mg daily, CYP1A2 predicted activity phenotype Normal) was 8.13 (4.48) n=22 ng/mL and the “Mean Endoxifen (Std. Dev.)” value (steady state, tamoxifen 20 mg daily, CYP1A2 predicted activity phenotype Poor) was 9.57 (6.18) n=6 ng/mL. The “Mean Endoxifen (Std. Dev.)” value (steady state, tamoxifen 20 mg daily, CYP2A6 predicted activity phenotype Normal) was 7.95 (5.57) n=220 ng/mL, the “Mean Endoxifen (Std. Dev.)” value (steady state, tamoxifen 20 mg daily, CYP2A6 predicted activity phenotype Poor) was 7.46 (9.71) n=5 ng/mL and the “Mean Endoxifen (Std. Dev.)” value (steady state, tamoxifen 20 mg daily, CYP2B6 predicted activity phenotype Normal) was 8.11 (5.33) n=151 ng/mL. For the same compound, the “Mean Endoxifen (Std. Dev.)” value (steady state, tamoxifen 20 mg daily, CYP2B6 predicted activity phenotype Poor) was 8.20 (4.81) n=24 ng/mL, the “Mean Endoxifen (Std. Dev.)” value (steady state, tamoxifen 20 mg daily, CYP2C8 predicted activity phenotype Normal) was 8.38 (5.72) n=205 ng/mL and the “Mean Endoxifen (Std. Dev.)” value (steady state, tamoxifen 20 mg daily, CYP2C8 predicted activity phenotype Poor) was 6.71 (5.04) n=13 ng/mL. The “Mean Endoxifen (Std. Dev.)” value (steady state, tamoxifen 20 mg daily, CYP2C9 predicted activity phenotype Normal) was 8.29 (5.61) n=189 ng/mL, the “Mean Endoxifen (Std. Dev.)” value (steady state, tamoxifen 20 mg daily, CYP2C9 predicted activity phenotype Poor) was 6.26 (4.82) n=9 ng/mL and the “Mean Endoxifen (Std. Dev.)” value (steady state, tamoxifen 20 mg daily, CYP2C19 predicted activity phenotype Normal) was 7.64 (5.97) n=109 ng/mL. The “Mean Endoxifen (Std. Dev.)” value (steady state, tamoxifen 20 mg daily, CYP2C19 predicted activity phenotype Poor) was 7.95 (5.66) n=13 ng/mL, the “Mean Endoxifen (Std. Dev.)” value (steady state, tamoxifen 20 mg daily, CYP2E1 predicted activity phenotype Normal) was 8.03 (5.40) n=84 ng/mL and the “Mean Endoxifen (Std. Dev.)” value (steady state, tamoxifen 20 mg daily, CYP3A4 predicted activity phenotype Normal) was 7.78 (5.39) n=288 ng/mL. The “Mean Endoxifen (Std. Dev.)” value (steady state, tamoxifen 20 mg daily, CYP3A5 predicted activity phenotype Normal) was 8.51 (7.70) n=8 ng/mL, the “Mean Endoxifen (Std. Dev.)” value (steady state, tamoxifen 20 mg daily, CYP3A5 predicted activity phenotype Poor) was 7.71 (5.29) n=240 ng/mL and the “Mean Endoxifen (Std. Dev.)” value (steady state, tamoxifen 20 mg daily, SLCO1B1 predicted activity phenotype Normal) was 8.63 (5.57) n=87 ng/mL. The “Mean Endoxifen (Std. Dev.)” value (steady state, tamoxifen 20 mg daily, SLCO1B1 predicted activity phenotype Poor) was 6.97 (4.21) n=62 ng/mL, the “Mean Endoxifen (Std. Dev.)” value (steady state, tamoxifen 20 mg daily, SULT1A1 predicted activity phenotype Normal) was 7.56 (4.51) n=111 ng/mL and the “Mean Endoxifen (Std. Dev.)” value (steady state, tamoxifen 20 mg daily, SULT1A1 predicted activity phenotype Poor) was 7.81 (6.59) n=45 ng/mL. The “Mean Endoxifen (Std. Dev.)” value (steady state, tamoxifen 20 mg daily, SULT1A2 predicted activity phenotype Normal) was 7.94 (5.23) n=84 ng/mL, the “Mean Endoxifen (Std. Dev.)” value (steady state, tamoxifen 20 mg daily, SULT1A2 predicted activity phenotype Poor) was 7.72 (5.70) n=74 ng/mL and the “Mean Endoxifen (Std. Dev.)” value (steady state, tamoxifen 20 mg daily, UGT2B7 predicted activity phenotype Normal) was 7.11 (5.09) n=73 ng/mL. The “Mean Endoxifen (Std. Dev.)” value (steady state, tamoxifen 20 mg daily, UGT2B7 predicted activity phenotype Poor) was 8.38 (5.36) n=63 ng/mL, the “Mean Endoxifen (Std. Dev.)” value (steady state, tamoxifen 20 mg daily, UGT2B15 predicted activity phenotype Normal) was 8.07 (5.82) n=71 ng/mL and the “Mean Endoxifen (Std. Dev.)” value (steady state, tamoxifen 20 mg daily, UGT2B15 predicted activity phenotype Poor) was 7.75 (4.48) n=75 ng/mL. The “Mean Endoxifen (Std. Dev.)” value (steady state, tamoxifen 20 mg daily, UGT2B17 predicted activity phenotype Normal) was 7.83 (5.25) n=122 ng/mL and the “Mean Endoxifen (Std. Dev.)” value (steady state, tamoxifen 20 mg daily, UGT2B17 predicted activity phenotype Poor) was 6.60 (5.48) n=35 ng/mL.
